Test results published in patent publication US20240228482A1, “COMPOUNDS, COMPOSITIONS AND METHODS OF TREATING CANCER” (HOTSPOT THERAPEUTICS, INC., priority 2021, published 2024).

Target: T1, CBL-B (Homo sapiens, UniProt Q13191)
T1 construct: GST
Assay: CBL-B TR-FRET IC50 screening (E1/E2 ubiquitination, Biotin-Ubiquitin, Anti GST-Tb donor / Streptavidin-d2 acceptor)
Format: biochemical
Conditions: second part of Table 2 (head 'Patent Cmpd No / Updated Activity'); same CBL-B TR-FRET IC50 bins A-F; read-out: Updated Activity

T1 sequence (Q13191 whole entry): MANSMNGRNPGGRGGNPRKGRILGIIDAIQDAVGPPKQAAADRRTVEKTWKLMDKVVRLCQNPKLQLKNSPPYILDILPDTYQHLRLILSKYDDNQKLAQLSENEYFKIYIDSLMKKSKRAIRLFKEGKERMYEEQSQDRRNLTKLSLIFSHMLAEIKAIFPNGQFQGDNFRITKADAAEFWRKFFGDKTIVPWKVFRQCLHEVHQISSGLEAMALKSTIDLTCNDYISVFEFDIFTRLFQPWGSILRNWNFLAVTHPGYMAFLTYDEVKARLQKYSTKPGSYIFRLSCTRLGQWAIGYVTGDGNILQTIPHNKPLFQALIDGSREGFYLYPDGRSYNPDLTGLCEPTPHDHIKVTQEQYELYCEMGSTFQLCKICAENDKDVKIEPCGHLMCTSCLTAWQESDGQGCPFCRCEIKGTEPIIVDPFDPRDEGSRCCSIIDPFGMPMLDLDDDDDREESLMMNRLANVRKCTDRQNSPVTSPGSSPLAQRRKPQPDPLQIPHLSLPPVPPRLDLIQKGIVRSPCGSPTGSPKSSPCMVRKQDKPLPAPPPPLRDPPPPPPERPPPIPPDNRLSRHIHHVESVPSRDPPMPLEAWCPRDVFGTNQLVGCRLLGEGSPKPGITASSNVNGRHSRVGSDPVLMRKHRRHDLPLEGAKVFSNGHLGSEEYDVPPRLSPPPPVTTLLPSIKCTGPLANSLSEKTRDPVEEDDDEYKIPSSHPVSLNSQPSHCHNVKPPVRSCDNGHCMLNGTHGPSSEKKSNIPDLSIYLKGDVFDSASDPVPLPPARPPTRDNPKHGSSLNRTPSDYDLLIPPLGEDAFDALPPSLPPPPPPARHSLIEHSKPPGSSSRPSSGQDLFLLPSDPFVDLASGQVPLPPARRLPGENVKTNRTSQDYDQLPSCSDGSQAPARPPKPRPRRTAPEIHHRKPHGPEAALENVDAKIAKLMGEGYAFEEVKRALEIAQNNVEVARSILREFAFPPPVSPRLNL

| IC50 [µM] | Compound |
| --- | --- |
| < 0.1 | Cn1cnnc1[C@@H](c1cccc(-n2cc3c(C(F)(F)F)cc(CN4CCC[C@@](C)(O)C4)cn3c2=O)c1)C1CCC1 (single isomer, unassigned) [Compound 569] |
| < 0.1 | C[C@@H]1CN(Cc2cc(C(F)(F)F)c3cn(-c4cccc([C@H](c5nncn5C)C5CCC5)c4)c(=O)n3c2)CC[C@@H]1O (single isomer, unassigned) [Compound 570] |
| < 0.1 | C[C@H]1CN(Cc2cc(C(F)(F)F)c3cn(-c4cccc([C@H](c5nncn5C)C5CCC5)c4)c(=O)n3c2)CC[C@H]1O (single isomer, unassigned) [Compound 571] |
| < 0.1 | C[C@H](c1cc(C(F)(F)F)c2cn(-c3cccc([C@H](c4nncn4C)C4CCC4)c3)c(=O)n2c1)N1CC[C@H](C#N)C1 (single isomer, unassigned) [Compound 573_P1] |
| < 0.1 | C[C@@H](c1cc(C(F)(F)F)c2cn(-c3cccc([C@H](c4nncn4C)C4CCC4)c3)c(=O)n2c1)N1CC[C@H](C#N)C1 (single isomer, unassigned) [Compound 573_P2] |
| > 10 | C[C@H]1CCCN(Cc2cc(C(F)(F)F)c3cn(-c4cccc([C@H](c5nncn5C)[C@H]5C[C@@](C)(O)C5)c4)c(=O)n3c2)C1 (single isomer, unassigned) [Compound 574] |
| > 10 | C[C@H]1CCCN(Cc2cc(C(F)(F)F)c3cn(-c4cccc([C@H](c5nncn5C)[C@H]5C[C@](C)(O)C5)c4)c(=O)n3c2)C1 (single isomer, unassigned) [Compound 575] |
| > 10 | C[C@H]1CCCN(Cc2cc(C(F)(F)F)c3cn(-c4cccc([C@@H](c5nncn5C)[C@H]5C[C@](C)(O)C5)c4)c(=O)n3c2)C1 (single isomer, unassigned) [Compound 576] |
| > 10 | C[C@H]1CCCN(Cc2cc(C(F)(F)F)c3cn(-c4cccc([C@@H](c5nncn5C)[C@H]5C[C@@](C)(O)C5)c4)c(=O)n3c2)C1 (single isomer, unassigned) [Compound 577] |
| 1 to 3 | COC1([C@H](c2cccc(-n3cc4c(C(F)(F)F)cc(CN5CCC[C@H](C)C5)cn4c3=O)c2)c2nncn2C)CCC1 (single isomer, unassigned) [Compound 578] |
| 0.301 to 1 | COC1([C@@H](c2cccc(-n3cc4c(C(F)(F)F)cc(CN5CCC[C@H](C)C5)cn4c3=O)c2)c2nncn2C)CCC1 (single isomer, unassigned) [Compound 579] |
| 3 to 10 | C[C@H](c1cc(C(F)(F)F)c2cn(-c3cccc([C@H](c4nncn4C)C4CCC4)c3)c(=O)n2c1)N1CCC[C@H](C(F)(F)F)C1 (single isomer, unassigned) [Compound 580] |
| > 10 | Cc1cnnn1[C@H](c1cccc(-n2cc3c(C(F)(F)F)cc(CN4CCC[C@H](C)C4)cn3c2=O)c1)C1CCC1 (single isomer, unassigned) [Compound 582] |
| 3 to 10 | Cc1cnnn1[C@@H](c1cccc(-n2cc3c(C(F)(F)F)cc(CN4CCC[C@H](C)C4)cn3c2=O)c1)C1CCC1 (single isomer, unassigned) [Compound 583] |
| > 10 | C[C@H]1CCCN(Cc2cc(C(F)(F)F)c3cn(-c4cccc([C@@H](c5nc(CO)cn5C)C5CCC5)c4)c(=O)n3c2)C1 (single isomer, unassigned) [Compound 584] |
| > 10 | C[C@H]1CCCN(Cc2cc(C(F)(F)F)c3cn(-c4cccc([C@H](c5nc(CO)cn5C)C5CCC5)c4)c(=O)n3c2)C1 (single isomer, unassigned) [Compound 585] |
| < 0.1 | C[C@@H]1CN(Cc2cc(C(F)(F)F)c3cn(-c4cccc([C@H](c5nncn5C)C5CCC5)c4)c(=O)n3c2)CC[C@H]1O (single isomer, unassigned) [Compound 586] |

| IC50 [µM] | Compound |
| --- | --- |
| < 0.1 | C[C@H]1C[C@@H](O)CN(Cc2cc(C(F)(F)F)c3cn(-c4cccc([C@H](c5nncn5C)C5CCC5)c4)c(=O)n3c2)C1 (single isomer, unassigned) [Compound 587] |
| < 0.1 | C[C@H]1CN(Cc2cc(C(F)(F)F)c3cn(-c4cccc([C@H](c5nncn5C)C5CCC5)c4)c(=O)n3c2)CC[C@@H]1O (single isomer, unassigned) [Compound 588] |
| < 0.1 | C[C@@H]1C[C@H](O)CN(Cc2cc(C(F)(F)F)c3cn(-c4cccc([C@H](c5nncn5C)C5CCC5)c4)c(=O)n3c2)C1 (single isomer, unassigned) [Compound 589] |
| < 0.1 | C[C@@H]1CC(=O)NN1Cc1cc(C(F)(F)F)c2cn(-c3cccc([C@H](c4nncn4C)C4CCC4)c3)c(=O)n2c1 (single isomer, unassigned) [Compound 598] |
| < 0.1 | C[C@H]1CC(=O)NN1Cc1cc(C(F)(F)F)c2cn(-c3cccc([C@H](c4nncn4C)C4CCC4)c3)c(=O)n2c1 (single isomer, unassigned) [Compound 599] |
| < 0.1 | CO[C@H]1C[C@@](c2cccc(-n3cc4c(C(F)(F)F)cc([C@@H](C)N5CCC[C@H](C)C5)cn4c3=O)c2)(c2nncn2C)C1 (single isomer, unassigned) [Compound 600] |
| < 0.1 | CO[C@H]1C[C@@](c2cccc(-n3cc4c(C(F)(F)F)cc([C@H](C)N5CCC[C@H](C)C5)cn4c3=O)c2)(c2nncn2C)C1 (single isomer, unassigned) [Compound 601] |
| 0.301 to 1 | CO[C@H]1C[C@@](c2cccc(-n3cc4c(C(F)(F)F)cc([C@@H](C)N5CCC(F)CC5)cn4c3=O)c2)(c2nncn2C)C1 (single isomer, unassigned) [Compound 602] |
| < 0.1 | CO[C@H]1C[C@@](c2cccc(-n3cc4c(C(F)(F)F)cc([C@H](C)N5CCC(F)CC5)cn4c3=O)c2)(c2nncn2C)C1 (single isomer, unassigned) [Compound 603] |
| < 0.1 | CO[C@H]1C[C@](c2cccc(-n3cc4c(C(F)(F)F)cc([C@@H](C)N5CCC[C@H](C)C5)cn4c3=O)c2)(c2nncn2C)C1 (single isomer, unassigned) [Compound 604] |
| < 0.1 | CO[C@H]1C[C@](c2cccc(-n3cc4c(C(F)(F)F)cc([C@H](C)N5CCC[C@H](C)C5)cn4c3=O)c2)(c2nncn2C)C1 (single isomer, unassigned) [Compound 605] |
| 0.1 to 0.3 | CO[C@H]1C[C@](c2cccc(-n3cc4c(C(F)(F)F)cc([C@@H](C)N5CCC(F)CC5)cn4c3=O)c2)(c2nncn2C)C1 (single isomer, unassigned) [Compound 606] |
| < 0.1 | CO[C@H]1C[C@](c2cccc(-n3cc4c(C(F)(F)F)cc([C@H](C)N5CCC(F)CC5)cn4c3=O)c2)(c2nncn2C)C1 (single isomer, unassigned) [Compound 607] |
| < 0.1 | C[C@H](c1cc(C(F)(F)F)c2cn(-c3cccc([C@H](c4nncn4C)C4CCC4)c3)c(=O)n2c1)N1CCC[C@@H](C(F)(F)F)C1 (single isomer, unassigned) [Compound 613] |
| < 0.1 | C[C@@H](c1cc(C(F)(F)F)c2cn(-c3cccc([C@H](c4nncn4C)C4CCC4)c3)c(=O)n2c1)N1CCC[C@@H](C(F)(F)F)C1 (single isomer, unassigned) [Compound 614] |
| 0.301 to 1 | CO[C@H]1C[C@@](c2cccc(-n3cc4c(C(F)(F)F)cc([C@@H](C)N5CC[C@H](F)C5)cn4c3=O)c2)(c2nncn2C)C1 (single isomer, unassigned) [Compound 615] |
| < 0.1 | CO[C@H]1C[C@@](c2cccc(-n3cc4c(C(F)(F)F)cc([C@H](C)N5CC[C@H](F)C5)cn4c3=O)c2)(c2nncn2C)C1 (single isomer, unassigned) [Compound 616] |
